Assay results published in patent US11702404B2, “GLP-1R modulating compounds” (priority 2019, dated 2023).
pEC50: −log10 of the molar value. Like-named read-outs stand apart in the source and are kept apart here.

How the values were obtained:
[1] = Microsomal stability, human liver microsomes (predicted hepatic clearance); conditions: predicted from in vitro microsomal stability data
[2] = biological target: GLP-1R (Homo sapiens, UniProt P43220); assay: GLP-1R activation: cAMP increase in CHO cells stably expressing GLP-1R; assay type: cell-based; conditions: for pEC50: cAMP increase, CHO cells stably expressing GLP-1R, 10 point dose response, 30 minutes incubation, read-out: EC50
Sequence of GLP-1R (P43220 24-463): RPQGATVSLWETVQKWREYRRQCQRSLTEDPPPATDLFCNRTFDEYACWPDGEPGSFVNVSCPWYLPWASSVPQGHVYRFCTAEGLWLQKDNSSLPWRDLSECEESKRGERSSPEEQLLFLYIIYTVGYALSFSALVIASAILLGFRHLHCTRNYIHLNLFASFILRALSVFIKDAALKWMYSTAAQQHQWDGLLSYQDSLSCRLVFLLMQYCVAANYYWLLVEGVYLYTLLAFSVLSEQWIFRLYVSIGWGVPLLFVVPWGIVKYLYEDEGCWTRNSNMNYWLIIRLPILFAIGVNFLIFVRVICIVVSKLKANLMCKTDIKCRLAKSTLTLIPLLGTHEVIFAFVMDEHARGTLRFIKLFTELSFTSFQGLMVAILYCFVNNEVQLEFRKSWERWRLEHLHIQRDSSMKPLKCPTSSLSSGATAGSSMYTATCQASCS

Row | SMILES | Predicted Hepatic Clearance (Pred. Cl.) [1] | pEC50 [2] | EC50 ([2]; EC50 (nM))
1 | COCCn1c(Cc2cc(F)c(-c3nc(OCc4ccc(C#N)cc4F)ccc3F)cc2F)nc2ccc(C(=O)O)cc21 [Example 202, 2-(4-(6-((4-cyano-2-fluorobenzyl)oxy)-3-fluoropyridin-2-yl)-2,5-difluorobenzyl)-1-(2-methoxyethyl)-1H-benzo[d]imidazole-carboxylic acid] | 5.25 mL/min/kg | 8.48 | –
2 | CC1(C)CC(Cn2c(Cc3ccc(-c4cccc(OCc5ccc(C#N)cc5F)n4)cc3F)nc3ccc(C(=O)O)cc32)O1 (single isomer, unassigned) [Example 905, 2-(4-(6-((4-cyano-2-fluorobenzyl)oxy)pyridin-2-yl)-2-fluorobenzyl)-1-((4,4-dimethyloxetan-2-yl)methyl)-1H-benzo[d]imidazole-6-carboxylic acid] | 4.33 mL/min/kg | 7.51 | –
3 | CO[C@H]1COC[C@H]1n1c(Cc2cc(F)c(-c3cccc(OCc4ccc(C#N)cc4F)n3)cc2F)nc2ccc(C(=O)O)cc21 (single isomer, unassigned) [Example 890, 2-(4-(6-((4-cyano-2-fluorobenzyl)oxy)pyridin-2-yl)-2,5-difluorobenzyl)-1-(cis-4-methoxytetrahydrofuran-3-yl)-1H-benzo[d]imidazole-6-carboxylic acid] | 5.17 mL/min/kg | 9.31 | –
4 | N#Cc1cc(F)c(COc2cccc(-c3ccc(Cc4nc5ccc(C(=O)O)cc5n4C[C@@H]4CCO4)c(F)c3)n2)cc1F [Example 668] | 3.67 mL/min/kg | 9.25 | –
5 | COCCn1c(Cc2ccc(-c3cccc(OCc4cccc5scnc45)n3)cc2F)nc2ccc(C(=O)O)cc21 [Example 146, 2-(4-(6-(benzo[d]thiazol-4-ylmethoxy)pyridin-2-yl)-2-fluorobenzyl)-1-(2-methoxyethyl)-1H-benzo[d]imidazole-6-carboxylic acid] | 7.33 mL/min/kg | 7.44 | –
6 | COCCn1c(Cc2ccc(-c3cccc(OCc4ccc(COC)cc4F)n3)cc2F)nc2ccc(C(=O)O)cc21 [Example 845, 2-(2-fluoro-4-(6-((2-fluoro-4-(methoxymethyl)benzyl)oxy)pyridin-2-yl)benzyl)-1-(2-methoxyethyl)-1H-benzo[d]imidazole-6-carboxylic acid] | 12.3 mL/min/kg | – | 18 nM
7 | COCCn1c(Cc2ccc(-c3cccc(Oc4cccc5ccccc45)n3)cc2F)nc2ccc(C(=O)O)cc21 [Example 98, 2-(2-fluoro-4-(6-(naphthalen-1-yloxy)pyridin-2-yl)benzyl)-1-(2-methoxyethyl)-1H-benzo[d]imidazole-6-carboxylic acid] | 7.33 mL/min/kg | 6.04 | –
8 | COCCn1c(Cc2ccc(-c3cccc(OCc4ccc(C#N)cc4F)n3)cc2NC(C)=O)nc2ccc(C(=O)O)cc21 [Example 65, 2-(2-Acetamido-4-(6-((4-cyano-2-fluorobenzyl)oxy)pyridin-2-yl)benzyl)-1-(2-methoxyethyl)-1H-benzo[d]imidazole-6-carboxylic acid] | 7.17 mL/min/kg | 5.91 | –
9 | COCCn1c(C2CCc3cc(-c4cccc(OCc5ccc(C#N)cc5F)n4)ccc32)nc2ccc(C(=O)O)cc21 (single isomer, unassigned) [Example 47, 2-(5-(6-((4-cyano-2-fluorobenzyl)oxy)pyridin-2-yl)-2,3-dihydro-1H-inden-1-yl)-1-(2-methoxyethyl)-1H-benzo[d]imidazole-6-carboxylic acid] | 4.67 mL/min/kg | 5.84 | –
10 | COCCn1c(Cc2ccc(-c3cccc(OCc4ccc(C#N)cc4F)n3)cn2)nc2ccc(C(=O)NS(=O)(=O)C3CC3)cc21 [Example 54, 2-((6-((4-cyano-2-fluorobenzyl)oxy)-[2,3′-bipyridin]-6′-yl)methyl)-N-(cyclopropylsulfonyl)-1-(2-methoxyethyl)-1H-benzo[d]imidazole-6-carboxamide] | 3.83 mL/min/kg | 6.09 | –
11 | O=C(O)c1ccc2nc(Cc3cc(F)c(-c4ccc(F)c(OCc5ccc(C(F)F)cc5F)n4)cc3F)n(CC34CC(CO3)C4)c2c1 [Example 772] | 1.83 mL/min/kg | 9.21 | –
12 | N#Cc1ccc(COc2cccc(-c3ccc(Cc4nc5c(F)cc(C(=O)O)cc5n4Cc4ncco4)c(F)c3)n2)c(F)c1 [Example 625] | 2.67 mL/min/kg | 9.20 | –
13 | COCCn1c(Cn2c(C)cc(-c3cccc(OCc4ccc(C#N)cc4F)n3)cc2=O)nc2ccc(C(=O)O)cc21 [Example 437, 2-((6-((4-cyano-2-fluorobenzyl)oxy)-6′-methyl-2′-oxo-[2,4′-bipyridin]-1′(2′H)-yl)methyl)-1-(2-methoxyethyl)-1H-benzo[d]imidazole-6-carboxylic acid] | 2.67 mL/min/kg | 7.16 | –
14 | COCC1(Cn2c(Cc3cc(F)c(-c4cccc(OCc5ccc(C#N)cc5F)n4)cc3F)nc3ccc(C(=O)O)cc32)CC1 [Example 638] | 1.83 mL/min/kg | 8.65 | –
15 | COCCn1c(Cc2ccc(-c3cc(C)cc(OCc4ccc(C#N)cc4F)n3)cc2F)nc2ccc(C(=O)O)cc21 [Example 31, 2-(4-(6-((4-cyano-2-fluorobenzyl)oxy)-4-methylpyridin-2-yl)-2-fluorobenzyl)-1-(2-methoxyethyl)-1H-benzo[d]imidazole-6-carboxylic acid] | 4.67 mL/min/kg | 7.49 | –
16 | COCCn1c(Cc2ccc(-c3cccc(OCc4ccc(F)cc4)n3)cc2F)nc2ccc(C(=O)O)cc21 [Example 256, 2-(2-fluoro-4-(6-((4-fluorobenzyl)oxy)pyridin-2-yl)benzyl)-1-(2-methoxyethyl)-1H-benzo[d]imidazole-6-carboxylic acid] | 5.33 mL/min/kg | 7.51 | –
17 | N#Cc1ccc(COc2nccc(-c3ccc(Cc4nc5ccc(C(=O)O)cc5n4CC4(CF)CC4)c(F)c3)n2)c(F)c1 [Example 344, 2-(4-(2-((4-cyano-2-fluorobenzyl)oxy)pyrimidin-4-yl)-2-fluorobenzyl)-1-((1-(fluoromethyl)cyclopropyl)methyl)-1H-benzo[d]imidazole-6-carboxylic acid] | <1.83 mL/min/kg | 8.81 | –
18 | COCCn1c(Cc2ccc(-c3cccc(OCc4ccccc4COC)n3)cc2F)nc2ccc(C(=O)O)cc21 [Example 496, 2-(2-fluoro-4-(6-((2-(methoxymethyl)benzyl)oxy)pyridin-2-yl)benzyl)-1-(2-methoxyethyl)-1H-benzo[d]imidazole-6-carboxylic acid] | 18.2 mL/min/kg | 5.70 | –
19 | N#Cc1ccc(COc2cccc(-c3cc(F)c(Cc4nc5ccc(C(=O)O)cc5n4C[C@@H]4COCCO4)cc3F)n2)c(F)c1 [Example 642] | 2.67 mL/min/kg | 8.29 | –
20 | COCC1(n2c(Cc3ccc(-c4cccc(OCc5ccc(C#N)cc5F)n4)cc3F)nc3ccc(C(=O)O)cc32)CC1 [Example 377, 2-(4-(6-((4-cyano-2-fluorobenzyl)oxy)pyridin-2-yl)-2-fluorobenzyl)-1-(1-(methoxymethyl)cyclopropyl)-1H-benzo[d]imidazole-6-carboxylic acid] | 3.17 mL/min/kg | 7.96 | –
21 | COCCn1c(Cc2ccc(-c3cccc(OCc4ccc(C(F)(F)F)cc4F)n3)cc2F)nc2ccc(C(=O)O)cc21 [Example 480, 2-[[2-fluoro-4-[6-[[2-fluoro-4-(trifluoromethyl)phenyl]methoxy]-2-pyridyl]phenyl]methyl]-3-(2-methoxyethyl)benzimidazole-5-carboxylic acid] | <1.83 mL/min/kg | 8.18 | –
22 | N#Cc1ccc(COc2nc(-c3ccc(Cc4nc5ccc(C(=O)O)cc5n4C[C@@H]4CCO4)cc3)ccc2F)c(F)c1 [Example 795] | 1.83 mL/min/kg | 9.19 | –
23 | COCCn1c(Cc2ccc(-c3cccc(OCc4ccc(C#N)cc4F)n3)cc2C#CC2(CO)CC2)nc2ccc(C(=O)O)cc21 [Example 240, 2-(4-(6-((4-cyano-2-fluorobenzyl)oxy)pyridin-2-yl)-2-((1-(hydroxymethyl)cyclopropyl)ethynyl)benzyl)-1-(2-methoxyethyl)-1H-benzo[d]imidazole-6-carboxylic acid] | 13.7 mL/min/kg | 8.17 | –
24 | COC(Cn1c(Cc2ccc(-c3cccc(OCc4ccc(C#N)cc4F)n3)cc2F)nc2ccc(C(=O)O)cc21)C(=O)Nc1nccs1 (single isomer, unassigned) [Example 329, 2-(4-(6-((4-cyano-2-fluorobenzyl)oxy)pyridin-2-yl)-2-fluorobenzyl)-1-(2-methoxy-3-oxo-3-(thiazol-2-ylamino)propyl)-1H-benzo[d]imidazole-6-carboxylic acid] | 7.83 mL/min/kg | 6.54 | –
25 | COCCn1c(Cc2ccc(-c3cccc(OCc4ccc(C#N)cc4F)n3)cc2F)nc2ccc(C(=O)O)c(Cl)c21 [Example 366, 7-chloro-2-(4-(6-((4-cyano-2-fluorobenzyl)oxy)pyridin-2-yl)-2-fluorobenzyl)-1-(2-methoxyethyl)-1H-benzo[d]imidazole-6-carboxylic acid] | 5.5 mL/min/kg | 7.68 | –
26 | COCCn1c(Cc2cc(F)c(-c3cccc(OCc4ccc(-c5ccn(C)n5)cc4F)n3)cc2F)nc2ccc(C(=O)O)cc21 [Example 917] | 1.83 mL/min/kg | 7.25 | –
27 | COCCn1c(Cc2c(F)cc(-c3cccnc3OCc3cc(Cl)ccc3F)cc2F)nc2ccc(C(=O)O)cc21 [Example 408, 2-(4-(2-((5-chloro-2-fluorobenzyl)oxy)pyridin-3-yl)-2,6-difluorobenzyl)-1-(2-methoxyethyl)-1H-benzo[d]imidazole-6-carboxylic acid] | 10.1 mL/min/kg | ≤ 6.00 | –
